Reference: PubChem BioAssay (NCI)
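Cells were grown in 96-well plates and exposed to each compound for 48 hours at five concentrations; endpoints were interpolated linearly between bracketing concentrations, or set to the highest concentration if not reached. GI50 = concentration required for 50% inhibition of growth. TGI is the concentration that stops growth completely.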

Columns and labels:
Assay in all cases: growth of human tumour cells (NCI), 48 h
ACHN renal = tested on: ACHN renal
SK-MEL-5 melanoma = tested on: SK-MEL-5 melanoma
SNB-19 CNS = tested on: SNB-19 CNS
MALME-3M melanoma = tested on: MALME-3M melanoma
SF-539 CNS = tested on: SF-539 CNS
RXF 393 renal = tested on: RXF 393 renal
DU-145 prostate = tested on: DU-145 prostate
MDA-N = tested on: MDA-N
MCF7 breast = tested on: MCF7 breast
MDA-MB-231 breast = tested on: MDA-MB-231 breast

SMILES | TGI (ACHN renal) | TGI (SK-MEL-5 melanoma) | TGI (SNB-19 CNS) | TGI (MALME-3M melanoma) | TGI (SF-539 CNS) | TGI (RXF 393 renal) | TGI (DU-145 prostate) | TGI (MDA-N) | TGI (MCF7 breast) | GI50 (RXF 393 renal) | TGI (MDA-MB-231 breast) | GI50 (ACHN renal) | GI50 (SK-MEL-5 melanoma) | GI50 (SNB-19 CNS) | GI50 (DU-145 prostate) | GI50 (SF-539 CNS) | GI50 (MDA-MB-231 breast)
Cc1nc2cc(Nc3ccccc3C(=O)O)ccc2s1 | > 100 µM | > 100 µM | > 100 µM | > 100 µM | > 100 µM | > 100 µM | – | – | – | – | – | – | – | – | – | – | –
NC(=O)CC(N=Cc1nc(-c2ccccc2)oc1O)C(=O)O (stereo not drawn) | > 100 µM | > 100 µM | > 100 µM | > 100 µM | > 100 µM | > 100 µM | – | – | – | – | – | – | – | – | – | – | –
C(=Nc1ccc(-c2nc3ccccc3s2)cc1)c1ccc[nH]1 | 60.7 µM | 30.7 µM | > 100 µM | 32.2 µM | 37.3 µM | 31.3 µM | 34.5 µM | 33.6 µM | – | – | – | – | – | – | – | – | –
O=C(O)/C=C/c1c[nH]c(=O)[nH]c1=O | – | > 500 µM | > 500 µM | > 500 µM | > 500 µM | > 500 µM | – | – | > 500 µM | > 500000 nM | – | – | – | – | – | – | –
C[C@]12CC(c3ccccc3O1)C(C(=O)Nc1nc(C34CC5CC(CC(C5)C3)C4)cs1)C(=O)N2 (stereo partly drawn) | > 100 µM | > 100 µM | > 100 µM | > 100 µM | – | > 100 µM | > 100 µM | – | > 100 µM | – | > 100 µM | – | – | – | – | – | –
NC(=S)N1N=C2c3ccccc3CC[C@H]2[C@@H]1c1ccc(Cl)cc1 | > 100 µM | – | > 100 µM | 52.6 µM | > 100 µM | 84.3 µM | – | – | – | – | – | – | – | – | – | – | –
CC(=O)c1ccc(NC(=O)C(=O)C(C#N)CC(C)(C)C=O)cc1 (stereo not drawn) | > 100 µM | > 100 µM | > 100 µM | > 100 µM | > 100 µM | – | – | – | – | – | – | – | – | – | – | – | –
O=c1[nH]cnc2c(COCCO)c[nH]c12 | > 100 µM | > 100 µM | > 100 µM | > 100 µM | > 100 µM | > 100 µM | – | – | – | – | – | – | – | – | – | – | –
Cn1cc(C(=O)c2ccccc2)cc(C(=O)c2ccccc2)c1=O | > 100 µM | > 100 µM | > 100 µM | > 100 µM | > 100 µM | > 100 µM | – | – | – | – | – | – | – | – | – | – | –
COc1cc2c(/C=C3/C(=O)N(C)c4ccc(O)cc43)c(Cl)[nH]c2cc1C | 16.8 µM | 6.35 µM | 5.35 µM | – | 0.722 µM | 23.3 µM | 18.4 µM | – | 33.4 µM | – | 15 µM | – | – | – | – | – | –
C/C(N=NS(=O)(=O)c1ccc([N+](=O)[O-])cc1)=C1\C=CC=CN1O | > 100 µM | > 100 µM | > 100 µM | – | > 100 µM | – | – | – | – | – | – | – | – | – | – | – | –
COc1ccc(NC(=O)CC(=O)n2nc(C)c(N=Nc3ccccc3C(=O)O)c2C)cc1 | – | > 100 µM | > 100 µM | > 100 µM | > 100 µM | – | – | – | – | – | – | – | – | – | – | – | –
C[C@H](CCC1SC1(C)C)C1CCC2(C)C3=C(CC[C@]12C)[C@@]1(C)CC[C@H](O)C(C)(C)C1CC3 (stereo partly drawn) | > 100 µM | > 100 µM | > 100 µM | > 100 µM | – | > 100 µM | – | – | – | – | – | – | – | – | – | – | –
C#CCN(Cc1ccc2nc(-c3ccccc3)c(N)nc2c1)c1cc(OC)c(OC)c(OC)c1 | 80.7 µM | 25.7 µM | > 100 µM | 83.3 µM | > 100 µM | 96.2 µM | – | – | – | – | – | – | – | – | – | – | –
O=c1[nH]c(=O)n(COCc2ccccc2)cc1Nc1ccc(Br)cc1 | > 100 µM | > 100 µM | > 100 µM | – | – | > 100 µM | > 100 µM | > 100 µM | > 100 µM | – | – | – | – | – | – | – | –
COc1cc2c(/C=C3/C(=O)Nc4ccc(Cl)cc43)c(Cl)[nH]c2cc1C | 10.8 µM | 10.4 µM | 12.7 µM | 20.9 µM | 0.638 µM | 20.5 µM | 4.38 µM | – | 34.9 µM | – | 4.62 µM | – | – | – | – | – | –
COc1cc(-c2c3c(cc4c2OCO4)[C@@H](Nc2ccc(-c4ccc(-c5ccc(N[C@@H]6c7cc8c(cc7C(c7cc(OC)c(O)c(OC)c7)[C@H]7C(=O)OC[C@H]67)OCO8)cc5)cc4)cc2)[C@H]2COC(=O)[C@@H]2C3)cc(OC)c1O (stereo partly drawn) | 11.3 µM | 7.58 µM | 12.5 µM | 7.4 µM | – | – | 4.74 µM | – | 12.1 µM | – | 6 µM | – | – | – | – | – | –
O=C(/C=C(\C(=O)c1cccs1)c1cccs1)c1ccc(C(=O)/C=C(\C(=O)c2cccs2)c2cccs2)cc1 | > 100 µM | > 100 µM | > 100 µM | – | > 100 µM | > 100 µM | > 100 µM | – | > 100 µM | – | > 100 µM | – | – | – | – | – | –
O=C(Cn1c(C(=O)c2ccccc2)nc2ccccc21)c1ccccc1 | > 100 µM | > 100 µM | > 100 µM | > 100 µM | > 100 µM | > 100 µM | > 100 µM | – | > 100 µM | – | > 100 µM | – | – | – | – | – | –
COc1cc(C(C)O)c[n+](CCC2CNc3ccccc32)c1 (stereo not drawn) | > 100 µM | > 100 µM | > 100 µM | > 100 µM | > 100 µM | – | – | – | – | – | – | – | – | – | – | – | –
CCCCCCCCCCCCCC[n+]1ccc(C)cc1 | 10.9 µM | 1.81 µM | 4.02 µM | – | 4.72 µM | 2.35 µM | 1.83 µM | – | – | 1050 nM | 3.7 µM | 3.23 µM | 548 nM | 1460 nM | 608 nM | 1770 nM | 1340 nM
